Data published in patent US7829325B2, “Drug testing with bio-artificial organ slices including for example those derived from liver” (HepaHope, Inc., priority 2003, dated 2010).

Key:
liver slices [1] = settings: 20 mg loading dose; all trials; in presence of HL 100; FIG. 5
liver slices [2] = tested on: liver slices
[3] = 2 mg lidocaine dose, continuous and intermittent (1:3) perfusion, in presence of HL 100, FIG. 3A

Row | time of maximal ammonia clearance (liver slices [1]) | SMILES | lidocaine levels within 30 minutes (liver slices [2]; 2 mg dose, 6 hour trials and continuous perfusion 24 hour trial, exposed to HL 100, FIG. 3B) | level of lidocaine at 120 minutes (liver slices [2]; [3]) | level of lidocaine at approximately 30 minutes after lidocaine loading (liver slices [2]; [3])
1 | approximately 30 minutes | N [ammonia] | – | – | –
2 | – | CCN(CC)CC(=O)Nc1c(C)cccc1C [lidocaine] | approximately 0.8 μg | approximately 0.5 :g | approximately 0.9 μg
